Results as given in US12122761B2, “2-azaspiro[3.4]octane derivatives as M4 agonists” (NOVARTIS AG, priority 2019, dated 2024).

Experiments:
[1] = molecular target: T1, Cloned human M1 receptor (CHRM1) stably expressed in HEK293 cells (Homo sapiens, UniProt P11229); test: CHRM1 Ca++ Flux Assay (agonist mode, FDSS 7000EX); assay type: cell-based; conditions: for Emax: HEK293, Percent Activity, read-out: M1 FDSS PA; for EC50: geometric mean if tested more than once
T1 construct: expressed in transfected cells; host or cells: HEK293
T1 sequence (P11229 1-460): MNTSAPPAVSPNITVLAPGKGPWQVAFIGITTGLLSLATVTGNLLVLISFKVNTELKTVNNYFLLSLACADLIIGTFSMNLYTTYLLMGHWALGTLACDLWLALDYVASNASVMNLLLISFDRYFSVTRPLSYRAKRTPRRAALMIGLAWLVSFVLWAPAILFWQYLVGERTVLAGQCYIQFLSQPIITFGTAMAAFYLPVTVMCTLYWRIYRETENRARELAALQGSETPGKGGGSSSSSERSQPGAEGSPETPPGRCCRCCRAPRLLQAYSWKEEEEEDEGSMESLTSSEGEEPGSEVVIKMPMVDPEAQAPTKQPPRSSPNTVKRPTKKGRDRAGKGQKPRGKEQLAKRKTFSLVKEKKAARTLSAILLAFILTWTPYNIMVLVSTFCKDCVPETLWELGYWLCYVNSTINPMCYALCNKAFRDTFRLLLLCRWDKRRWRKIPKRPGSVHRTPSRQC
Outline: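 Compounds tested as agonists at 11 concentrations in triplicate, with calcium traces captured over 3 minutes. Cells were HEK293 with stable human CHRM1 expression, plated overnight at 25K/well and loaded with calcium dye. Responses normalized to carbachol EC100 and fitted by four-parameter nonlinear regression.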

[2] = molecular target: T2, human cloned CHRM4 receptor (M4_CHO cells) (Homo sapiens, UniProt P08173); test: CHRM4 Ca++ Flux Assay (agonist mode, FDSS 7000EX); assay type: cell-based; conditions: for Emax: Percent Activity, read-out: M4 FDSS PA; for EC50: geometric mean if tested more than once, read-out: M4 FDSS EC50
T2 construct: expressed in transfected cells; host or cells: CHO-K1
T2 sequence (P08173 1-479): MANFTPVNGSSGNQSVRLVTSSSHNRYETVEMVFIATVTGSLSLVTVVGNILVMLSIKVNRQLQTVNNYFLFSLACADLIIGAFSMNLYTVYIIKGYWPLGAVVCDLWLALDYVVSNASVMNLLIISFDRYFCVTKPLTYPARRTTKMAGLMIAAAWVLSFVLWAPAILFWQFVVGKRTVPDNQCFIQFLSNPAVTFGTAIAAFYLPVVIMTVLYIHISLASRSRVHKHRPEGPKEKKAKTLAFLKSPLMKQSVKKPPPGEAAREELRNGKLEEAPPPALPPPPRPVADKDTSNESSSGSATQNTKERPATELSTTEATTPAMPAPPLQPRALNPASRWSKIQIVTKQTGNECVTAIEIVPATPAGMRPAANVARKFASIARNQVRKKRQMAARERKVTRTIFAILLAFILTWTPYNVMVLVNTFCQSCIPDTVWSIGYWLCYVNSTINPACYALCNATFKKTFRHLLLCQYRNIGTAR
Outline: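 Agonist-mode response was expressed as percent of the Carbachol EC100 and fitted with four-parameter nonlinear regression over an 11-point triplicate dose series. Intracellular Ca++ was tracked for 3 min by fluorescent dye in CHO-K1 cells stably expressing human CHRM4. Cells were preincubated 60 min with 20 μM ATP in buffer containing 2.5 mM probenecid.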

Row | Compound | Emax [1] [%] | EC50 [1] [nM] | Emax [2] [%] | EC50 [2] [nM]
1 | Fc1ccc(C2CCOC2)c(C2CCN([C@@H]3CCC4(C3)CN(c3nnco3)C4)CC2)c1 (mixture of isomers) [Example 2J, 2-((6R)-6-(4-(5-fluoro-2-(tetrahydrofuran-3-yl)phenyl)piperidin-1-yl)-2-azaspiro[3.4]octan-2-yl)-1,3,4-oxadiazole] | 97 | 46 | 92 | 2
2 | O=C(C1COC1)N1CC2(CC[C@H](N3CCC(c4ccccc4OC(F)(F)F)CC3)C2)C1 (single isomer, unassigned) [Example 8G] | 0 | > 25000 | 24 | 274
3 | O=C(N1CC2(CC[C@H](N3CCC(c4ccccc4C4CCOCC4)CC3)C2)C1)C1(F)CC1 (single isomer, unassigned) [Example 9M] | 0 | 6440 | 35 | 100
4 | c1ccc(C2CCN([C@H]3CCC4(C3)CN(c3nnco3)C4)CC2)c(C2CCOCC2)c1 (single isomer, unassigned) [Example 10T] | 21 | 3920 | 67 | 170
5 | c1ccc(C2CCN([C@@H]3CCC4(C3)CN(c3nnco3)C4)CC2)c(OC2CC3(COC3)C2)c1 [Example 1A, (R)-2-(6-(4-(2-((2-oxaspiro[3.3]heptan-6-yl)oxy)phenyl)piperidin-1-yl)-2-azaspiro[3.4]octan-2-yl)-1,3,4-oxadiazole] | 63 | 237 | 81 | 1
6 | c1ccc(C2CCN([C@@H]3CCC4(C3)CN(c3nnco3)C4)CC2)c(OC2COC2)c1 [Example 1D, (R)-2-(6-(4-(2-(oxetan-3-yloxy)phenyl)piperidin-1-yl)-2-azaspiro[3.4]octan-2-yl)-1,3,4-oxadiazole] | 89 | 19 | 79 | 1
7 | c1ccc(C2CCN([C@@H]3CCC4(C3)CN(c3nnco3)C4)CC2)c(OC[C@@H]2COCCO2)c1 [Example 1E, 2-((R)-6-(4-(2-(((S)-1,4-dioxan-2-yl)methoxy)phenyl)piperidin-1-yl)-2-azaspiro[3.4]octan-2-yl)-1,3,4-oxadiazole] | 85 | 57 | 72 | 1
8 | CC(C)(O)CCOc1ccccc1C1CCN([C@@H]2CCC3(C2)CN(c2nnco2)C3)CC1 [Example 1F] | 79 | 31 | 48 | 4
9 | c1ccc(C2CCN([C@@H]3CCC4(C3)CN(c3nncs3)C4)CC2)c(OCC2COC2)c1 [Example 1G, (R)-2-(6-(4-(2-(oxetan-3-ylmethoxy)phenyl)piperidin-1-yl)-2-azaspiro[3.4]octan-2-yl)-1,3,4-thiadiazole] | 80 | 72 | 82 | 1
10 | FC1(COc2ccccc2C2CCN([C@@H]3CCC4(C3)CN(c3nncs3)C4)CC2)COC1 [Example 1H, (R)-2-(6-(4-(2-((3-fluorooxetan-3-yl)methoxy)phenyl)piperidin-1-yl)-2-azaspiro[3.4]octan-2-yl)-1,3,4-thiadiazole] | 88 | 48 | 71 | 1
11 | c1ccc(C2CCN([C@@H]3CCC4(C3)CN(c3nncs3)C4)CC2)c(OCC2CCOCC2)c1 [Example 1I, (R)-2-(6-(4-(2-((tetrahydro-2H-pyran-4-yl)methoxy)phenyl)piperidin-1-yl)-2-azaspiro[3.4]octan-2-yl)-1,3,4-thiadiazole] | 55 | 616 | 61 | 4
12 | FC1(COc2ccccc2C2CCN([C@@H]3CCC4(C3)CN(c3nncs3)C4)CC2)CCOCC1 [Example 1J, (R)-2-(6-(4-(2-((4-fluorotetrahydro-2H-pyran-4-yl)methoxy)phenyl)piperidin-1-yl)-2-azaspiro[3.4]octan-2-yl)-1,3,4-thiadiazole] | 78 | 182 | 50 | 6
13 | c1ccc(C2CCN([C@@H]3CCC4(C3)CN(c3cncnc3)C4)CC2)c(OC2COC2)c1 [Example 1K, (R)-6-(4-(2-(oxetan-3-yloxy)phenyl)piperidin-1-yl)-2-(pyrimidin-5-yl)-2-azaspiro[3.4]octane] | 85 | 24 | 74 | 1
14 | c1ccc(C2CCN([C@@H]3CCC4(C3)CN(c3cncnc3)C4)CC2)c(OC2CCOCC2)c1 [Example 1L, (R)-2-(pyrimidin-5-yl)-6-(4-(2-((tetrahydro-2H-pyran-4-yl)oxy)phenyl)piperidin-1-yl)-2-azaspiro[3.4]octane] | 42 | 166 | 67 | 2
15 | c1ccc(C2CCN([C@@H]3CCC4(C3)CN(c3cncnc3)C4)CC2)c(OCC2CCOCC2)c1 [Example 1M, (R)-2-(pyrimidin-5-yl)-6-(4-(2-((tetrahydro-2H-pyran-4-yl)methoxy)phenyl)piperidin-1-yl)-2-azaspiro[3.4]octane] | 11 | 1550 | 53 | 3
16 | c1ccc(C2CCN([C@@H]3CCC4(C3)CN(c3cncnc3)C4)CC2)c(OCC2COC2)c1 [Example 1N, (R)-6-(4-(2-(oxetan-3-ylmethoxy)phenyl)piperidin-1-yl)-2-(pyrimidin-5-yl)-2-azaspiro[3.4]octane] | 70 | 69 | 62 | < 0.4
17 | c1ccc(C2CCN([C@@H]3CCC4(C3)CN(c3cncnc3)C4)CC2)c(OC2CC3(COC3)C2)c1 [Example 1O, (R)-6-(4-(2-((2-oxaspiro[3.3]heptan-6-yl)oxy)phenyl)piperidin-1-yl)-2-(pyrimidin-5-yl)-2-azaspiro[3.4]octane] | 0 | > 25000 | 59 | 3
18 | c1ccc(C2CCN([C@@H]3CCC4(C3)CN(c3cncnc3)C4)CC2)c(O[C@@H]2CCOC2)c1 [Example 1P, (R)-2-(pyrimidin-5-yl)-6-(4-(2-(((R)-tetrahydrofuran-3-yl)oxy)phenyl)piperidin-1-yl)-2-azaspiro[3.4]octane] | 43 | 98 | 61 | 1
19 | CC(C)(O)COc1ccccc1C1CCN([C@@H]2CCC3(C2)CN(c2nnco2)C3)CC1 [Example 2A, (R)-1-(2-(1-(2-(1,3,4-oxadiazol-2-yl)-2-azaspiro[3.4]octan-6-yl)piperidin-4-yl)phenoxy)-2-methylpropan-2-ol] | 74 | 147 | 69 | 10
20 | c1ccc(C2CCN([C@@H]3CCC4(C3)CN(c3nnco3)C4)CC2)c(O[C@@H]2CCOC2)c1 [Example 2B, 2-((R)-6-(4-(2-(((R)-tetrahydrofuran-3-yl)oxy)phenyl)piperidin-1-yl)-2-azaspiro[3.4]octan-2-yl)-1,3,4-oxadiazole] | 107 | 36 | 95 | < 0.4
21 | COCCOc1ccccc1C1CCN([C@@H]2CCC3(C2)CN(c2nnco2)C3)CC1 [Example 2C] | 79 | 59 | 72 | 1
22 | FC1(COc2ccccc2C2CCN([C@@H]3CCC4(C3)CN(c3nnco3)C4)CC2)CCOCC1 [Example 2D, (R)-2-(6-(4-(2-((4-fluorotetrahydro-2H-pyran-4-yl)methoxy)phenyl)piperidin-1-yl)-2-azaspiro[3.4]octan-2-yl)-1,3,4-oxadiazole] | 82 | 141 | 72 | 1
23 | COc1ccc(F)cc1C1CCN([C@@H]2CCC3(C2)CN(C(=O)C2COC2)C3)CC1 [Example 6A, (R)-(6-(4-(5-fluoro-2-methoxyphenyl)piperidin-1-yl)-2-azaspiro[3.4]octan-2-yl)(oxetan-3-yl)methanone] |  |  |  | 1
24 | CCOc1ccccc1C1CCN([C@@H]2CCC3(C2)CN(C(=O)C2COC2)C3)CC1 [Example 7J, (R)-(6-(4-(2-ethoxyphenyl)piperidin-1-yl)-2-azaspiro[3.4]octan-2-yl)(oxetan-3-yl)methanone] |  |  |  | 6
